Test results reported in ChEMBL document CHEMBL4706608, “Design and synthesis of 3-(4-pyridyl)-5-(4-sulfamido-phenyl)-1,2,4-oxadiazole derivatives as novel GSK-3β inhibitors and evaluation of their potential as multifunctional anti-Alzheimer agents” (Eur J Med Chem, 2021).
Calls of active or inactive are those of the source. No cut-off for these calls is given here.

Legend:
[1] = target: T1, Glycogen synthase kinase-3 beta (Homo sapiens, UniProt P49841); test: Inhibition of GSK3beta (unknown origin) measured after 40 mins by ADP-Glo assay
Target sequence in this assay (P49841 whole entry): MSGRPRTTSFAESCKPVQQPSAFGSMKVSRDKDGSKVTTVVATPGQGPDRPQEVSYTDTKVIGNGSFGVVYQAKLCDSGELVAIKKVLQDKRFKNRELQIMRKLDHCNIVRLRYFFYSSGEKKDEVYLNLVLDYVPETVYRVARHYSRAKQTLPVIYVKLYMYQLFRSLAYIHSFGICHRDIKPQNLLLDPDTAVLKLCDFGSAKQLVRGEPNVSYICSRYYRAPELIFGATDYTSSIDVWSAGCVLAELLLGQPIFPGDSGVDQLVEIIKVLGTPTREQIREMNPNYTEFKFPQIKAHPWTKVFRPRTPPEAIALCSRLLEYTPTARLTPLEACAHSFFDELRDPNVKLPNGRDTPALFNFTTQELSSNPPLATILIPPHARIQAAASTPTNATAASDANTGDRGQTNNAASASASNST

BV-2 [2] = test: Anti-neuroinflammation in mouse BV2 cells assessed as inhibition of LPS-induced NO production preincubated for 1 hr followed by LPS addition measured after 24 hrs by Griess reagent based assay; assay type: functional, cell-based
HepG2 [3] = test: Increase in glucose consumption in human HepG2 cells at 20 uM after 24 hrs by glucose oxidase assay; assay type: functional, cell-based
HepG2 [4] = test: Increase in glucose consumption in human HepG2 cells at 20 uM after 24 hrs by glucose oxidase assay (reference value: 1.36 mM); assay type: functional
PC-12 [5] = test: Neuroprotective activity against H2O2-induced cytotoxicity in rat PC12 cells assessed as increase in cell viability at 10 uM preincubated for 3 hrs followed by H2O2 addition and measured after 24 hrs by MTT assay (reference value: 24.8 to 41.7%); assay type: functional
PC-12 [6] = test: Neuroprotective activity against H2O2-induced cytotoxicity in rat PC12 cells assessed as increase in cell viability at 30 uM preincubated for 3 hrs followed by H2O2 addition and measured after 24 hrs by MTT assay (reference value: 24.8 to 41.7%); assay type: functional
[7] = Cytotoxicity against rat PC-12 cells assessed as cell viability at 30 uM by MTT assay relative to control; assay type: cell-based; details: read-out: Activity
[8] = Cytotoxicity against rat PC-12 cells assessed as cell viability at 50 uM by MTT assay relative to control; assay type: cell-based; details: read-out: Activity
HepG2 [9] = test: Cytotoxicity against human HepG2 cells assessed as cell viability at 10 to 50 uM after 24 hrs by MTT assay; assay type: cell-based; details: hepg2, 24 h, dose 10-50 µM
L02 = test: Cytotoxicity against human L-02 cells assessed as decreased cell viability at 50 uM after 24 hrs by MTT assay; assay type: cell-based; details: l02, 24 h
[10] = Antioxidant activity assessed as DPPH radical scavenging activity after 2 hrs by microplate method; assay type: functional; details: dose 1-1000 µM
PC-12 [11] = test: Inhibition of H2O2-induced intracellular ROS production in rat PC-12 cells pretreated for 6 hrs followed by H2O2 addition measured after 18 hrs by DCFH-DA assay; assay type: functional, cell-based; details: dose 1-50 µM, time 24.0 hrs
SH-SY5Y = test: Inhibition of H2O2-induced intracellular ROS production in human SH-SY5Y cells pretreated for 6 hrs followed by H2O2 addition measured after 18 hrs by DCFH-DA assay; assay type: functional, cell-based; details: dose 1-50 µM, time 24.0 hrs
BV-2 [12] = test: Antiinflammatory activity in LPS-stimulated mouse BV-2 cells assessed as decrease in TNF-alpha level at 1 to 10 uM preincubated for 1 hr followed by LPS addition measured after 24 hrs by ELISA; assay type: functional, cell-based; details: dose 1-10 µM, time 25.0 hrs
BV-2 [13] = test: Antiinflammatory activity in LPS-stimulated mouse BV-2 cells assessed as decrease in IL-1beta level at 1 to 10 uM preincubated for 1 hr followed by LPS addition measured after 24 hrs by ELISA; assay type: functional, cell-based; details: dose 1-10 µM, time 25.0 hrs
BV-2 [14] = test: Antiinflammatory activity in LPS-stimulated mouse BV-2 cells assessed as decrease in cox-2 level at 1 to 10 uM preincubated for 1 hr followed by LPS addition measured after 24 hrs by Western blot analysis; assay type: functional, cell-based; details: dose 1-10 µM, time 25.0 hrs
BV-2 [15] = test: Antiinflammatory activity in LPS-stimulated mouse BV-2 cells assessed as decrease in iNOS level at 1 to 10 uM preincubated for 1 hr followed by LPS addition measured after 24 hrs by Western blot analysis; assay type: functional, cell-based; details: dose 1-10 µM, time 25.0 hrs
[16] = target: T1, Glycogen synthase kinase-3 beta; test: Inhibition of GSK-3beta in human SH-SY5Y cells assessed as decrease in amyloid beta-induced Tau hyperphosphorylation at Ser396 pretreated for 1 hr followed Amyloid beta addition measured after 6 hrs by Western blot analysis; assay type: cell-based; details: dose 5-15 µM, time 7.0 hrs
Target sequence in this assay (P49841 whole entry, looked up): as the sequence (P49841 whole entry) above

[17] = Apparent permeability from apical to basolateral side in MDCK2-MDR1 measured upto 120 mins; assay type: ADME, Canis lupus familiaris; details: dog, mdck-ii, 2 h
[18] = Apparent permeability from basolateral to apical side in MDCK2-MDR1 measured upto 120 mins; assay type: ADME, Canis lupus familiaris, MDCK-II; details: dog
[19] = Efflux ratio of apparent permeability across basolateral to apical membrane to apical to basolateral membrane in MDCK2-MDR1 measured upto 120 mins; assay type: ADME, tissue-based, Canis lupus familiaris, MDCK-II; details: dog
Mus musculus [20] = test: Cognitive enhancing effect in orally dosed C57BL mouse model of scopolamine-induced memory impairment assessed as escape latency administered for 7 days and measured after 30 mins at 4th day of training session by Morris water maze test; assay type: functional, organism-based; details: dose 10-30 mg/kg, time 7.0 day
Mus musculus [21] = test: Cognitive enhancing effect in C57BL mouse model of scopolamine-induced memory impairment assessed as time in target quadrant at 10 to 30 mg/kg, po administered for 7 days and measured after 30 mins at 5th day of training session by Morris water maze test; assay type: functional, organism-based; details: dose 10-30 mg/kg, time 7.0 day
Mus musculus [22] = test: Cognitive enhancing effect in C57BL mouse model of scopolamine-induced memory impairment assessed as number of virtual platform crossing at 10 to 30 mg/kg, po administered for 7 days and measured after 30 mins at 5th day of training session by Morris water maze test; assay type: functional, organism-based; details: dose 10-30 mg/kg, time 7.0 day
[23] = Effect on body weight in C57BL mouse model of scopolamine-induced memory impairment model at 10 to 30 mg/kg, po administered for 7 days; assay type: ADME, organism-based; details: in vivo, 168 h, dose 10-30 mg/kg, time 7 day
[24] = Effect on swimming speed in C57BL mouse model of scopolamine-induced memory impairment model at 10 to 30 mg/kg, po administered for 7 days; assay type: ADME, organism-based; details: in vivo, 168 h, dose 10-30 mg/kg, time 7 day
[25] = Cytotoxicity against human L-02 cells assessed as decreased cell viability at 50 uM after 24 hrs by MTT assay relative to control; assay type: cell-based, L02; details: read-out: INH

Compound | IC50 [1] [nM] | IC50 (BV-2 [2]) [µM] | Activity (HepG2 [4]) [mM] | Activity (PC-12 [5]) [%] | Activity (PC-12 [6]) [%] | viability at 30 µM [7] [%] | viability at 50 µM [8] [%] | Activity (HepG2 [9]) | Activity [10] | inhibition (PC-12 [11]) | inhibition (SH-SY5Y) | inhibition (BV-2 [12]) | inhibition (BV-2 [13]) | inhibition (BV-2 [14]) | inhibition (BV-2 [15]) | inhibition [16] | permeability [17] | also measured
CC(C)(C)c1ccc(S(=O)(=O)Nc2ccc(-c3nc(-c4ccnc(Nc5cccc(Cl)c5)c4)no3)cc2)cc1 | 190 | 6.94 | 3.43 | 54.3 | 64.9 | 99.2 | 97.2 | Non-Toxic | Dose-dependent effect | Dose-dependent effect | Dose-dependent effect | Active | Active | Active | Active | Dose-dependent effect | 1.89 10^-5 cm/s | Activity (HepG2 [3]): Active; Activity (L02): Non-Toxic; Papp B→A at 2 h ([18]; MDCK-MDR1, read-out: permeability): 19.3 ×10⁻⁶ cm/s; efflux ratio at 2 h ([19]; MDCK-MDR1): 1.02; Activity (Mus musculus [20]): Dose-dependent effect; Activity (Mus musculus [21]): Active; Activity (Mus musculus [22]): Active; Activity [23]: Non-Toxic; Activity [24]: Non-Toxic
CC(=O)c1ccc(S(=O)(=O)Nc2ccc(-c3nc(-c4ccnc(Nc5ccc(OC(F)(F)F)cc5)c4)no3)cc2)cc1 | 1020 | 0.47 | 3.28 | 57.1 | 68.6 | 99.1 | 98.1 | Non-Toxic | Dose-dependent effect | Dose-dependent effect | Dose-dependent effect | Active | Active | Active | Active | Dose-dependent effect | 1.31 10^-5 cm/s | cytotoxicity at 24 h, 50 µM [25]: 20%; permeability ([18]; mdck-ii, 2 h): 1.66 10^-5 cm/s; Ratio ([19]; mdck-ii, 2 h): 1.27
